Values quoted from earlier work as cited in publication PMC12690571, “Green Synthesis of a Hyaluronan-Based Multimeric A9 Peptide System: Polysaccharide-A9 Conjugate with Enhanced HER2 Receptor Binding Affinity and Potential Biomedical Applications as an Active Material” (Biomacromolecules, 2025).

System: HER2 receptor
Parameters: method as in not printed at the place
Details: A9 peptide; introduction, earlier work, ref not given

- binding affinity to HER2 receptor (in words): binds with high affinity
Substance: H-QDVNTAVAW-NH2 [A9]
